The species entered for series [1] is Mus musculus. In words: Effect on behavioral activity in mouse in presence of mephenesin. The class given is functional, organism-based.
Series [2] in a line: Potentiation of amphetamine-induced lethal activity in Wistar albino rat assessed as mortality after 4 days. The class given is organism-based. Particulars: in vivo, read-out: Activity.
The test system of another series is Hoplobatrachus tigerinus. The experiment in a line: Induction of tetanic convulsion in frog at 40 mg/kg dosed in ventral lymph sac. Format: functional, organism-based. Set-up: dose 40 mg/kg.
A short description of series [3]: Acute toxicity in ip dosed mouse. The class given is organism-based. Particulars: in vivo.
The test system of series [4] is Mus musculus. The experiment in a line: Effect on central nervous system in mouse assessed as behavioral activity at 10 to 20 mg/kg, ip. The class given is functional, organism-based.
The test system of series [5] is Mus musculus. The experiment in a line: Effect on behavioral activity in mouse assessed as convulsion-induced hind limb extension at 30 to 40 mg/kg, ip. The class given is functional, organism-based. Particulars: Hindlimb.
Series [6] concerns Mus musculus. In words: Potentiation of hexobarbitone-induced sleeping time in mouse at 5 mg/kg, ip. The class given is functional. Particulars: route intraperitoneal.
In series [7] the test system is Mus musculus. The experiment in a line: Potentiation of hexobarbitone-induced sleeping time in mouse at 20 mg/kg, ip. Particulars: route intraperitoneal. The class given is functional.
The subject of series [8] is Mus musculus. In words: Increase in locomotor activity in mouse at 10 mg/kg, ip after 30 mins by actophotometer. Format: functional, organism-based. Set-up: dose 10 mg/kg.
In series [9] the test system is Rattus norvegicus. In words: Increase in rectal temperature in Wistar albino rat at 5 mg/kg, ip by telethermometer relative to control. Format: functional. Particulars: route intraperitoneal.
In series [10] the test system is Rattus norvegicus. In words: Increase in rectal temperature in Wistar albino rat at 10 mg/kg, ip by telethermometer relative to control. Particulars: route intraperitoneal. Format: functional.
Series [11] relates to Rattus norvegicus. In words: Increase in rectal temperature in Wistar albino rat at 20 mg/kg, ip by telethermometer relative to control. Format: functional. Particulars: route intraperitoneal.
Series [12] has as its system Rattus norvegicus. In words: Antinociceptive activity in Wistar albino rat assessed as increase in latent period of tail flick response at 10 mg/kg, ip by tail-hot wire technique. Particulars: route intraperitoneal. The class given is functional.
Series [13] has as its system Rattus norvegicus. The experiment in a line: Antinociceptive activity in Wistar albino rat assessed as increase in latent period of tail flick response at 20 mg/kg, ip by tail-hot wire technique. The class given is functional. Particulars: route intraperitoneal.
A short description of series [14]: Toxicity in Wistar albino rat assessed as mortality after 4 days. Format: organism-based. Particulars: in vivo, read-out: Activity.
The subject of series [15] is Mus musculus. The experiment in a line: Induction of hypnosis in mouse at 100 mg/kg, ip. The class given is functional. Particulars: route intraperitoneal.

The source made the active and inactive calls. No cut-off for these calls is given here.

On to `Cc1ccccc1OCC(O)CO` (stereo unspecified), for which the outcome in the series filed under Mus musculus [1] was inactive.

With `COc1ccc(C[C@H]2c3cc(O)c(OC)cc3CCN2C)cc1O` [(S)-RETICULINE], the mortality at 96 h in series [2] was determined as 60%. Further, the result in the series on Hoplobatrachus tigerinus, in the series with Mus musculus [4], in the series on Mus musculus [5] and in the series on Mus musculus [8] was Active. Moreover, the LD50 in series [3] amounted to 56 mg/kg. For the same compound, the Activity with Mus musculus [6] worked out at 56.2 min; with Mus musculus [7], 23.7 min; in the series on Rattus norvegicus [9], 0.36 °C; in the series on Rattus norvegicus [10], 0.69 °C; in the series with Rattus norvegicus [11], 1.1 °C; in the series on Rattus norvegicus [12], 7.8 s. The Activity in the series with Rattus norvegicus [13] is on record as 11.9 s.

`CC(N)Cc1ccccc1` (stereo unspecified) [AMPHETAMINE]: the mortality at 96 h in series [14] amounted to 10%.

For the compound `CN1C(=O)NC(=O)C(C)(C2=CCCCC2)C1=O` (stereo unspecified) [HEXOBARBITAL], in the series on Mus musculus [15], the Activity was determined as 31.3 min.

The term LD50 denotes the dose expected to kill half of the subjects tested. Higher therefore signals lower toxicity.

The values above are taken from ChEMBL document CHEMBL1158649, “Constituents of Pachygone ovata and Pharmacological Action of its Major Leaf Alkaloid” (J Nat Prod, 1979).
